According to patent publication US10561629B2, “Food containing glycine and use thereof” (AJINOMOTO CO., INC., priority 2004, dated 2020):
Where two headings read alike, the source gives them in different places.

Assays:
[1] = one participant, 1.0-1.5 g tablet glycine, trip to East Coast USA, vs previous similar trips
Text: In the Figure, glycine (substantially pure tablet glycine containing only excipient and flavor) was taken at the time point marked with an arrow, wherein 1.0 g was taken on “June 20” and “June 21” and 1.5 g was taken on “June 22”-“June 26” and “June 29”.

[2] = for Heavy sleepiness (1 pm to 5 pm next afternoon) / Mild sleepiness (1 pm to 5 pm next afternoon) / No sleepiness (1 pm to 5 pm next afternoon): intake of glycine 1.5 g before sleep
Text: Three test participants (test participants A-C, body weight 64-74 kg) who were then visiting the U.S. for 5 days took glycine (1.5 g, substantially pure tablet glycine containing only excipient and flavor) before sleep and evaluated the sleepiness felt from 1 pm to 5 pm the next afternoon in 3 levels as compared to the absence of glycine.

[3] = 3 g before bed
Method: The test participant (body weight 45 kg) took, before going to bed, 3 g of glycine directly or upon addition to various foods (see, Table 3). The content (amount based on amino acid) of an amino acid other than glycine or a substance that can be hydrolyzed to give an amino acid other than glycine in these foods was generally 0 to 4 g. As compared to free of glycine intake, easiness of falling asleep and realization of deep sleep upon waking the next morning were recorded and summarized in Table 3.

[4] = Text: Table 5 reports the bowel movements on the next morning and the corresponding number of days.
[5] = beagles, oral 30 or 300 mg/kg
Method: Glycine (substantially pure glycine powder) was administered at 0, 30, or 300 mg/kg (0 mg/kg for control, CTRL) to beagles, and using the beagles, the R-R interval in electrocardiogram was measured by a telemetry system as an index of sympathetic activity. The measurement was conducted in the night after glycine administration. From the R-R interval after oral administration of glycine, moreover, sympathetic activity ((low frequency component LF)/(high frequency component HF)) and parasympathetic activity (high frequency component HF) were examined by power spectrum analysis.

[6] = for mental condition on waking: improved in comparison with placebo / mental condition on waking: no change in comparison with placebo / mental condition on waking: worsened in comparison with placebo / physical condition on waking: improved in comparison with placebo / physical condition on waking: no change in comparison with placebo / physical condition on waking: worsened in comparison with placebo: 3 g 1 hr before bedtime
Method: A double-blind crossover test aiming at confirmation of the effect of glycine on sleep was performed with 15 female adults (20s-50s, body weight 46-58 kg). The test participants took glycine (granule containing citric acid and the like) in an amount equivalent to 3 g of glycine 1 hr before bedtime, and reduced maltose containing components other than glycine (citric acid and the like) and adjusted to an almost indistinguishable taste was used as a placebo. For the test, glycine and placebo were each taken for 4 days with an interval of a 3 day non-intake period, totaling 2 weeks.
In the Table, the values of glycine and placebo show the test participant average of the points of evaluation in 8 levels in the sleep questionnaire “depth of sleep”. […] In addition, the p value is a statistical value showing the probability when the difference between glycine and placebo was hypothesized to be null. Particularly, this value of 0.05 or below is considered to indicate a significant difference.
(4) At the end of each 1 week test period, a question was asked about the soundness of sleep.

[7] = 3 g 30 min before bedtime, sleep limited to about 75%, next daytime, mean ± standard error
Method: A single-blind crossover study aimed at confirmation of the effect of glycine on sleep was performed with 7 male adults (30s-40s, body weight 62-79 kg). The test participants took glycine (granule containing citric acid and the like) in an amount equivalent to 3 g of glycine 30 min before bedtime, and reduced maltose containing components other than glycine (citric acid and the like) and adjusted to an almost indistinguishable taste was used as a placebo. The sleep hours on the day of administration was limited to about 75% (5-6.5 hr) of comfortable sleep hours each test participant voluntarily notified, and a nap was prohibited until the end of the administration. For the test, glycine and placebo were each taken for 3 days with an interval of a 14-21 day non-intake period, totaling 4-5 weeks. Of the 3 days, the following investigation and measurement were performed at 10 o'clock, 14 o'clock and 18 o'clock of the next day of the first day of the intake.
In addition, the p value is a statistical value showing the probability when the difference between glycine and placebo was hypothesized to be null. Particularly, this value of 0.05 or below is considered to indicate a significant difference.

[8] = addition to Japanese tea, 10 days of testing
[9] = addition to herb tea, 5 days of testing
[10] = addition to hot milk, 4 days of testing
[11] = addition to hot water or water, 14 days of testing
[12] = addition to yoghurt, 7 days of testing
[13] = test participant A, tablet intake (1 g) before bed
[14] = test participant B, intake (3 g) with yoghurt before bed
[15] = test participant B, powder intake (3 g) before bed
[16] = participants 32 years old or older (6)
[17] = participants with PSQI not less than 9 (7)
[18] = SAM lassitude check list, 4-day total, difference by 1 point or more vs placebo, 15 participants
[19] = SAM lassitude check list, 4-day total, difference by 4 points or more vs placebo, 15 participants
[20] = out of 15 participants, end of each 1 week test period
[21] = participants 32 years old or older

With `NCC(=O)O` [glycine, Glycine] the arousal during sleep [1] was “reduced or eliminated arousal during sleep”, the “sleepiness during the next daytime” value ([2]; all three test participants, 1.5 g before sleep, compared to absence of glycine) was “felt a lower level of sleepiness” and the “Heavy sleepiness (1 pm to 5 pm next afternoon)” value (shortened to “Heavy sleepiness”) ([2]; test participant A) was 0 days. For the same compound, the “Mild sleepiness (1 pm to 5 pm next afternoon)” value (from here on “Mild sleepiness”) ([2]; test participant A) was 2 days, the “No sleepiness (1 pm to 5 pm next afternoon)” value (“No sleepiness” below) ([2]; test participant A) was 2 days and the “Heavy sleepiness” value ([2]; test participant B) was 0 days. The “Mild sleepiness” value ([2]; test participant B) was 1 days, the “No sleepiness” value ([2]; test participant B) was 2 days and the “Heavy sleepiness” value ([2]; test participant C) was 0 days. The “Mild sleepiness” value ([2]; test participant C) was 0 days, the “No sleepiness” value ([2]; test participant C) was 1 days and the “Improved easiness of falling asleep” value [3, 8] was 9 days. The “Improved realization of deep sleep” value [3, 8] was 10 days, the “Improved easiness of falling asleep” value [3, 9] was 5 days and the “Improved realization of deep sleep” value [3, 9] was 5 days. For the same compound, the “Improved easiness of falling asleep” value [3, 10] was 4 days, the “Improved realization of deep sleep” value [3, 10] was 4 days and the “Improved easiness of falling asleep” value [3, 11] was 14 days. The “Improved realization of deep sleep” value [3, 11] was 14 days, the “Improved easiness of falling asleep” value [3, 12] was 7 days and the “Improved realization of deep sleep” value [3, 12] was 7 days. The “Improved easiness of falling asleep” value ([3]; powder, 3 days of testing) was 3 days, the “Improved realization of deep sleep” value ([3]; powder, 3 days of testing) was 3 days and the “No bowel movement (next morning)” value [4, 13] was 2 days. For the same compound, the “Presence of bowel movement (next morning)” value (“Presence of bowel movement” for short) [4, 13] was 10 days, the “No bowel movement (next morning)” value [4, 14] was 0 days and the “Presence of bowel movement” value [4, 14] was 4 days. For the same compound, the “No bowel movement (next morning)” value [4, 15] was 1 days, the “Presence of bowel movement” value [4, 15] was 7 days and the “R-R interval in electrocardiogram” value ([5]; 1-4 hr after administration, compared to control) was “increased”. The “parasympathetic activity (high frequency component HF)” value ([5]; power spectrum analysis of R-R interval) was “dominant”, the “mental condition on waking: improved in comparison with placebo” value [6, 16] was 5 person and the “mental condition on waking: no change in comparison with placebo” value [6, 16] was 1 person. The “mental condition on waking: worsened in comparison with placebo” value [6, 16] was 0 person, the “physical condition on waking: improved in comparison with placebo” value [6, 16] was 5 person and the “physical condition on waking: no change in comparison with placebo” value [6, 16] was 1 person. For the same compound, the “physical condition on waking: worsened in comparison with placebo” value [6, 16] was 0 person, the “mental condition on waking: improved in comparison with placebo” value [6, 17] was 5 person and the “mental condition on waking: no change in comparison with placebo” value [6, 17] was 2 person. The “mental condition on waking: worsened in comparison with placebo” value [6, 17] was 0 person, the “physical condition on waking: improved in comparison with placebo” value [6, 17] was 5 person and the “physical condition on waking: no change in comparison with placebo” value [6, 17] was 1 person. For the same compound, the “physical condition on waking: worsened in comparison with placebo” value [6, 17] was 1 person, the “Increase of lassitude on waking, effective criterion” value [6, 18] was 3 participants and the “No change of lassitude on waking, effective criterion” value [6, 18] was 1 participants. For the same compound, the “Reduction of lassitude on waking, effective” value [6, 18] was 11 participants, the “Increase of lassitude on waking, remarkably effective criterion” value [6, 19] was 2 participants and the “No change of lassitude on waking, remarkably effective criterion” value [6, 19] was 6 participants. For the same compound, the “Reduction of lassitude on waking, remarkably effective” value [6, 19] was 7 participants, the “Sleep questionnaire "depth of sleep"” value ([6]; average points, 8 levels, participants 32 years old or older, placebo 4.13, P value 0.042) was 4.88 and the “soundness of sleep: participants answering that both were the same” value [6, 20] was 8 participants. For the same compound, the “soundness of sleep: participants answering the week of glycine intake was fine” value [6, 20] was 6 participants, the “soundness of sleep: participants answering the week of placebo intake was fine” value [6, 20] was “one” and the “Effect of clearing head the next morning: effective in comparison with placebo” value [6, 21] was 5 person. For the same compound, the “Effect of clearing head the next morning: no change in comparison with placebo” value [6, 21] was 1 person, the “Effect of clearing head the next morning: worsened in comparison with placebo” value [6, 21] was 0 person and the “lassitude (SAM lassitude check list total points)” value ([7]; placebo 9.0 ± 0.68, p value 0.025) was 7.0 ± 0.74. For the same compound, the “sleepiness (distance from left end of 100 mm line)” value ([7]; placebo 50.7 ± 4.39, p value 0.042) was 38.1 ± 4.47 mm.
